Here are results for eleven compounds from ChEMBL document CHEMBL1133425, “Synthesis and dopaminergic activity of heterocyclic analogues of 5,6-dihydroxy-2-aminotetralins” (2000).

For experiment [1], the species on record is Oryctolagus cuniculus. In words: D1-like activity was evaluated as pD2 on a superfused rabbit splenic artery. Type of experiment: functional.
For experiment [2], the species on record is Oryctolagus cuniculus. Briefly: D2-like activity was evaluated as pD2 on a superfused rabbit ear artery. Type of experiment: functional.

Consider `CS(=O)(=O)c1ccc(CCNCCCCCCNCCc2cc[nH]c2)cc1`, for which the pD2 in the experiment filed under Oryctolagus cuniculus [1] was <5. `CCCN(CCCCCCNCCc1ccc(S(C)(=O)=O)cc1)[C@H]1CCc2c(ccc(O)c2O)C1`: the pD2 is 8.6 in the experiment listed under Oryctolagus cuniculus [1] and 10.1 in the experiment filed under Oryctolagus cuniculus [2]. With `CS(=O)(=O)c1ccc(CCNCCCCCCNC2CCc3[nH]ccc3C2)cc1` (centres undefined), the pD2 in the experiment filed under Oryctolagus cuniculus [1] was <5; in the experiment filed under Oryctolagus cuniculus [2], <6.

On to `CS(=O)(=O)c1ccc(CCNCCCCCCNCCc2cccnc2)cc1`, for which the results for the pD2 in the experiment filed under Oryctolagus cuniculus [1] and in the experiment listed under Oryctolagus cuniculus [2] were <5 and 5.5, respectively. As to `CCCN(CCCCCCNCCc1ccc(S(C)(=O)=O)cc1)C1CCc2ncccc2C1` (centres undefined), the pD2 in the experiment filed under Oryctolagus cuniculus [1] is reported as <5; in the experiment filed under Oryctolagus cuniculus [2], 8.4. Turning to `CCCN(CCCCCCNCCc1ccc(S(C)(=O)=O)cc1)C1CCc2[nH]ccc2C1` (centres undefined), the pD2 in the experiment listed under Oryctolagus cuniculus [1] is reported as <5. As for `CCCN(CCCCCCNCCc1ccc(S(C)(=O)=O)cc1)C1CCc2nc(N)sc2C1` (centres undefined), the pD2 amounted to 6.3 in the experiment listed under Oryctolagus cuniculus [1] and 8.4 in the experiment listed under Oryctolagus cuniculus [2].

Take `CS(=O)(=O)c1ccc(CCNCCCCCCNC2CCc3ncccc3C2)cc1` (centres undefined): the pD2 in the experiment filed under Oryctolagus cuniculus [1] was <5; in the experiment listed under Oryctolagus cuniculus [2], 6.3. On the same counts, the results for `CCCN(CCCCCCN(CCC)CCc1cccnc1)CCc1ccc(S(C)(=O)=O)cc1` are 5.5 and <6. Take `CCCN(CCC)C1CCc2c(ccc(O)c2O)C1` (centres undefined): the results for the pD2 in the experiment filed under Oryctolagus cuniculus [1] and in the experiment listed under Oryctolagus cuniculus [2] were 6.5 and 9.8, respectively. `CCCN(CCCCCCN(CCC)C1CCc2nc(O)ccc2C1)CCc1ccc(S(C)(=O)=O)cc1` (centres undefined): the pD2 in the experiment listed under Oryctolagus cuniculus [1] was <5.
